In patent publication US20260138978A1, “POSITIVE ALLOSTERIC MODULATORS OF THE MUSCARINIC ACETYLCHOLINE RECEPTOR M1” (Vanderbilt University, priority 2022, published 2026):

Key:
[1] = molecular target: T1, human mAChRM1 (Homo sapiens, UniProt P11229); assay: mAChR M1 cell-based functional assay (calcium mobilization), positive allosteric modulator activity: increase in the EC20 acetylcholine response; settings: for Emax: PAM mode; for EC50: increase in the EC20 acetylcholine response, read-out: PAM Activity Human M1 EC50
T1 construct: host or cells: CHO-K1
T1 sequence (P11229 1-460): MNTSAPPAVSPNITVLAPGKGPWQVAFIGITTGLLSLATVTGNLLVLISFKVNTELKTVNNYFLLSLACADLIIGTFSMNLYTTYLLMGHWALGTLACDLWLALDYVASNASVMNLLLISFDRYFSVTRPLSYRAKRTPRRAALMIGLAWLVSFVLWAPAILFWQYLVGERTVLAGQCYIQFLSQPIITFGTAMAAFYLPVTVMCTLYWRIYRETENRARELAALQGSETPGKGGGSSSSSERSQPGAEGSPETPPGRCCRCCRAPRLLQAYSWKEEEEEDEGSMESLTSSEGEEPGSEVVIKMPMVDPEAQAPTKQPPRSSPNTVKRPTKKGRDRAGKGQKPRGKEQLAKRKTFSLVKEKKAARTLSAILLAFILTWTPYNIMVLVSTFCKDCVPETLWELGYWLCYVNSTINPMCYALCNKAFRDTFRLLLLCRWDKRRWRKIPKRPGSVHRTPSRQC
Method in brief: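 CHO-K1 cells stably expressing human M1, loaded with Fluo-4 AM; calcium flux recorded on FDSS at 1 Hz over 300 s following compound addition. PAM activity is the concentration-dependent increase of an EC20 acetylcholine response; EC50 and Emax from four-parameter logistic fits of 11-point, 1:3 concentration series.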

[2] = molecular target: T1, human mAChRM1; assay: mAChR M1 cell-based functional assay (calcium mobilization), agonist activity upon compound addition, Emax relative to acetylcholine maximum; settings: for EC50 / Agonist Activity Human M1 EC50: calcium mobilization upon compound addition; for Emax: relative to the maximum for acetylcholine
Method in brief: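 CHO-K1 cells stably expressing human M1 were loaded with Fluo-4 AM for 50 min at 37 °C. Compound was added 4 s into a 300 s FDSS read at 1 Hz, over 11-point 1:3 dilution curves. Agonism was taken as a concentration-dependent rise in calcium fluorescence ratio, with Emax expressed relative to the acetylcholine maximum from four-parameter logistic fits.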

Compound `Cn1cc2c(-c3cc(F)c(CN4Cc5cccnc5C4=O)c(C4CCCC4)c3)ccc(C(C)(C)O)c2n1` [Compound 136, 6-(2-cyclopentyl-6-fluoro-4-(7-(2-hydroxypropan-2-yl)-2-methyl-2H-indazol-4-yl)benzyl)-5,6-dihydro-7H-pyrrolo[3,4-b]pyridin-7-one] has an Emax [1] of 86%, an EC50 [1] of 648 nM and an EC50 [2] of 9680 nM. The Emax [2] was 21%.

For `CC(C)(O)c1ccc(-c2cc(F)c(CN3Cc4nccnc4C3=O)c(F)c2)cc1` [Compound 137, 6-((3,5-difluoro-4′-(2-hydroxypropan-2-yl)-[1,1′-biphenyl]-4-yl)methyl)-6,7-dihydro-5H-pyrrolo[3,4-b]pyrazin-5-one], the Emax [1] was 60%, the EC50 [1] was 5040 nM and the “Agonist Activity Human M1 EC50” value [2] was “inactive”.

In the case of `Cn1cc2c(-c3cc(F)c(CN4Cc5nccnc5C4=O)c(F)c3)ccc(C(C)(C)O)c2n1` [Compound 138, 6-(2,6-Difluoro-4-(7-(2-hydroxypropan-2-yl)-2-methyl-2H-indazol-4-yl)benzyl)-6,7-dihydro-5H-pyrrolo[3,4-b]pyrazin-5-one], the Emax [1] is reported as 67%, the EC50 [1] is reported as 281 nM and the EC50 [2] is reported as ≥ 10000 nM. It also gave an Emax [2] of 17%.

Compound `Cn1cc2c(-c3cc(F)c(CN4Cc5ncncc5C4=O)c(F)c3)ccc(C(C)(C)O)c2n1` [Compound 139, 6-(2,6-difluoro-4-(7-(2-hydroxypropan-2-yl)-2-methyl-2H-indazol-4-yl)benzyl)-6,7-dihydro-5H-pyrrolo[3,4-d]pyrimidin-5-one] has an Emax [1] of 87%, an EC50 [1] of 80 nM and an EC50 [2] of 3780 nM. It also gave an Emax [2] of 46%.

In the case of `Cn1cc2c(-c3cc(F)c(CN4Cc5ccncc5C4=O)c(F)c3)ccc(C(C)(C)O)c2n1` [Compound 140, 2-(2,6-difluoro-4-(7-(2-hydroxypropan-2-yl)-2-methyl-2H-indazol-4-yl)benzyl)-1,2-dihydro-3H-pyrrolo[3,4-c]pyridin-3-one], the Emax [1] is reported as 76%, the EC50 [1] is reported as 84 nM and the EC50 [2] is reported as 5640 nM. It also gave an Emax [2] of 41%.

With `CC(C)(O)c1ccc(-c2cc(F)c(CN3Cc4ccncc4C3=O)c(F)c2)cc1` [Compound 141, 2-((3,5-difluoro-4′-(2-hydroxypropan-2-yl)-[1,1′-biphenyl]-4-yl)methyl)-1,2-dihydro-3H-pyrrolo[3,4-c]pyridin-3-one] the Emax [1] was 79%, the EC50 [1] was 1010 nM and the “Agonist Activity Human M1 EC50” value [2] was “inactive”.

Work on `[2H]C1([2H])c2ncccc2C(=O)N1Cc1c(F)cc(-c2ccc(C(C)(C)O)c3nn(C)cc23)cc1F` [Compound 142, 6-(2,6-Difluoro-4-(7-(2-hydroxypropan-2-yl)-2-methyl-2H-indazol-4-yl)benzyl)-6,7-dihydro-5H-pyrrolo[3,4-b]pyridin-5-one-7,7-d2] yielded an Emax [1] of 87%, an EC50 [1] of 119 nM and an EC50 [2] of 4020 nM. The Emax [2] was 31%.

Compound `[2H]C1([2H])c2ncccc2C(=O)N1Cc1c(F)cc(-c2ccc(C(C)(C)O)c3nn(C([2H])([2H])[2H])cc23)cc1F` [Compound 145, 6-(2,6-difluoro-4-(7-(2-hydroxypropan-2-yl)-2-(methyl-d3)-2H-indazol-4-yl)benzyl)-6,7-dihydro-5H-pyrrolo[3,4-b]pyridin-5-one-7,7-d2] has an Emax [1] of 62%, an EC50 [1] of 145 nM and an EC50 [2] of 3780 nM. It also gave an Emax [2] of 12%.

`[2H]C1([2H])c2ncccc2C(=O)N1Cc1cc(F)c(-c2ccc(C(C)(C)O)c3nn(C)cc23)cc1F` [Compound 148, 6-(2,5-difluoro-4-(7-(2-hydroxypropan-2-yl)-2-methyl-2H-indazol-4-yl)benzyl)-6,7-dihydro-5H-pyrrolo[3,4-b]pyridin-5-one-7,7-d2] was tested, and the Emax [1] was 89%, the EC50 [1] was 206 nM and the EC50 [2] was ≥ 10000 nM. It also gave an Emax [2] of 27%.

In the case of `[2H]C1([2H])c2ncccc2C(=O)N1Cc1ccc(-c2ccc(C(C)(C)O)c3nn(C)cc23)c(F)c1F` [Compound 149, 6-(2,3-Difluoro-4-(7-(2-hydroxypropan-2-yl)-2-methyl-2H-indazol-4-yl)benzyl)-6,7-dihydro-5H-pyrrolo[3,4-b]pyridin-5-one-7,7-d2], the Emax [1] is reported as 88%, the EC50 [1] is reported as 623 nM and the “Agonist Activity Human M1 EC50” value [2] is reported as “inactive”.

Compound `[2H]C1([2H])c2ncccc2C(=O)N1Cc1c(Cl)cc(-c2ccc(C(C)(C)O)c3nn(C)cc23)cc1C1CC1` [Compound 150, 6-(2-chloro-6-cyclopropyl-4-(7-(2-hydroxypropan-2-yl)-2-methyl-2H-indazol-4-yl)benzyl)-6,7-dihydro-5H-pyrrolo[3,4-b]pyridin-5-one-7,7-d2] has an Emax [1] of 79%, an EC50 [1] of 364 nM and an EC50 [2] of 6720 nM. It also gave an Emax [2] of 23%.

In the case of `[2H]C1([2H])c2ncccc2C(=O)N1Cc1c(F)cc(-c2ccc(C(C)(C)O)c3nn(C)cc23)cc1N1CCC1` [Compound 151, 6-(2-(azetidin-1-yl)-6-fluoro-4-(7-(2-hydroxypropan-2-yl)-2-methyl-2H-indazol-4-yl)benzyl)-6,7-dihydro-5H-pyrrolo[3,4-b]pyridin-5-one-7,7-d2], the Emax [1] is reported as 85%, the EC50 [1] is reported as 1270 nM and the “Agonist Activity Human M1 EC50” value [2] is reported as “inactive”.

`[2H]C1([2H])c2ncccc2C(=O)N1Cc1c(F)cc(-c2ccc(C(C)(C)O)c3nn(C)cc23)cc1C1CCCC1` [Compound 152, 6-(2-cyclopentyl-6-fluoro-4-(7-(2-hydroxypropan-2-yl)-2-methyl-2H-indazol-4-yl)benzyl)-6,7-dihydro-5H-pyrrolo[3,4-b]pyridin-5-one-7,7-d2] was tested, and the Emax [1] was 74%, the EC50 [1] was 3360 nM and the “Agonist Activity Human M1 EC50” value [2] was “inactive”.

`[2H]C1([2H])c2ncccc2C(=O)N1Cc1ccc(-c2ccc(C(C)(C)O)c3nn(C)cc23)cc1C(C)C` [Compound 153, 6-(4-(7-(2-hydroxypropan-2-yl)-2-methyl-2H-indazol-4-yl)-2-isopropylbenzyl)-6,7-dihydro-5H-pyrrolo[3,4-b]pyridin-5-one-7,7-d2] was tested, and the Emax [1] was 35%, the EC50 [1] was ≥ 10000 nM and the “Agonist Activity Human M1 EC50” value [2] was “inactive”.

With `Cn1cc2c(-c3cc(F)c(CN4Cc5cccc(F)c5C4=O)c(F)c3)ccc(C(C)(C)O)c2n1` [Compound 154, 2-(2,6-difluoro-4-(7-(2-hydroxypropan-2-yl)-2-methyl-2H-indazol-4-yl)benzyl)-7-fluoroisoindolin-1-one] the Emax [1] was 87%, the EC50 [1] was 64 nM and the “Agonist Activity Human M1 EC50” value [2] was “inactive”.

`Cn1cc2cc(-c3cc(F)c(CN4Cc5cccc(F)c5C4=O)c(F)c3)cc(C(C)(C)O)c2n1` [Compound 155, 2-(2,6-difluoro-4-(7-(2-hydroxypropan-2-yl)-2-methyl-2H-indazol-5-yl)benzyl)-7-fluoroisoindolin-1-one] was tested, and the Emax [1] was 75%, the EC50 [1] was 358 nM and the “Agonist Activity Human M1 EC50” value [2] was “inactive”.

`[2H]C([2H])([2H])C(O)(c1ccc(-c2cc(F)c(CN3Cc4cccc(F)c4C3=O)c(F)c2)c2cn(C)nc12)C([2H])([2H])[2H]` [Compound 156, 2-(2,6-difluoro-4-(7-(2-hydroxypropan-2-yl-1,1,1,3,3,3-d)-2-methyl-2H-indazol-4-yl)benzyl)-7-fluoroisoindolin-1-one] was tested, and the Emax [1] was 83%, the EC50 [1] was 136 nM and the “Agonist Activity Human M1 EC50” value [2] was “inactive”.

For `Cn1ncc2c(-c3cc(F)c(CN4Cc5cccc(F)c5C4=O)c(F)c3)ccc(C(C)(C)O)c21` [Compound 157, 2-(2,6-difluoro-4-(7-(2-hydroxypropan-2-yl)-1-methyl-1H-indazol-4-yl)benzyl)-7-fluoroisoindolin-1-one], the Emax [1] was 61%, the EC50 [1] was ≥ 10000 nM and the “Agonist Activity Human M1 EC50” value [2] was “inactive”.

With `Cn1cc2c(-c3cc(F)c(CN4Cc5cccc(F)c5C4=O)c(F)c3)ccc(C(C)(O)C(F)F)c2n1` (centres unmarked) [Compound 158, 2-(4-(7-(1,1-difluoro-2-hydroxypropan-2-yl)-2-methyl-2H-indazol-4-yl)-2,6-difluorobenzyl)-7-fluoroisoindolin-1-one] the Emax [1] was 77%, the EC50 [1] was 450 nM and the “Agonist Activity Human M1 EC50” value [2] was “inactive”.

For `Cn1cc2c(-c3cc(F)c(CN4Cc5cccc(F)c5C4=O)c(F)c3)ccc(C3(O)COC3)c2n1` [Compound 159, 2-(2,6-difluoro-4-(7-(3-hydroxyoxetan-3-yl)-2-methyl-2H-indazol-4-yl)benzyl)-7-fluoroisoindolin-1-one], the Emax [1] was 81%, the EC50 [1] was 118 nM and the “Agonist Activity Human M1 EC50” value [2] was “inactive”.

`Cn1cc2c(-c3ccc(CN4Cc5cccc(F)c5C4=O)c(F)c3)ccc(C(C)(C)O)c2n1` [Compound 160, 7-fluoro-2-(2-fluoro-4-(7-(2-hydroxypropan-2-yl)-2-methyl-2H-indazol-4-yl)benzyl)isoindolin-1-one] was tested, and the Emax [1] was 80%, the EC50 [1] was 296 nM and the “Agonist Activity Human M1 EC50” value [2] was “inactive”.

In the case of `Cc1cc(-c2ccc(C(C)(C)O)c3nn(C)cc23)ccc1CN1Cc2cccc(F)c2C1=O` [Compound 161, 7-fluoro-2-(4-(7-(2-hydroxypropan-2-yl)-2-methyl-2H-indazol-4-yl)-2-methylbenzyl)isoindolin-1-one], the Emax [1] is reported as 80%, the EC50 [1] is reported as 521 nM and the “Agonist Activity Human M1 EC50” value [2] is reported as “inactive”.
